In patent publication US20110020312A1, “METHODS FOR TREATMENT OF METABOLIC DISORDERS USING EPIMETABOLIC SHIFTERS, MULTIDIMENSIONAL INTRACELLULAR MOLECULES, OR ENVIRONMENTAL INFLUENCERS” (priority 2009, published 2011):

Key:
[1] = tested on: HAEC, MCF-7, HepG2 and PC-3 cell lines; assay: OCR and ECAR in other normal and cancer cell lines (data not shown); format: cell-based; details: absence and/or presence of stressors (hyperglycemia, hypoxia, lactic acid)
Procedure: A similar comparison of OCR and ECAR values (data not shown) were determined in numerous other normal and cancer cells lines, including: HAEC (normal human aortic endothelial cells), MCF-7 (breast cancer), HepG2 (liver cancer) and highly metastatic PC-3 (prostate cancer) cell lines. […] Thus, the overall effect of CoQ10 in the treatment of cancer, including cell death, is an downstream effect of its collective influence on proteomic, genomic, metabolomic outcomes in concert with shifting of the cellular bioenergetics from glycolysis to mitochondrial OXPHOS.

SKBr3 cells = assay: Nexin assay for apoptosis, 24 h Q10; format: cell-based, human; details: 50 μM or 100 μM Q10, 24 hours
From the text: The 7AAD dye will enter into cells with permeabilized cell membranes; primarily those cells that are in late apoptosis. Annexin-V-PE is a dye that binds to Phosphotidyl serine, which is exposed on the outer surface of the plasma membrane in early apoptotic cells. The Nexin reagent thus can be used to differentiate between different populations of apoptotic cells in a flow cytometer.

ATP Citrate Lyase (ACL) = assay: Western blot, ATP Citrate Lyase levels in normal and cancer cells; format: cell-based, human
Procedure: The whole cell pellets were resuspended one at a time in 1 mL of C7 buffer and transferred to labeled 15 mL tubes. The samples were then sonicated in the cold room on ice using 6 sonic pulses with the setting at #14. The samples were spun for a short time to 2500 g after sonication and the samples transferred to 2 ml tubes. The pH was verified of each sample (pH should be 9.0) using the foam remaining in the […] sample tubes.
After transfer each of the blots was placed in between 2 Whatman Filter papers and dried for 15-20 minutes. After drying the blots were labeled with the date, the type of samples and either blot 1 or blot 2 using a HB pencil. The molecular weight markers were outlined with the pencil and with single lines for the blue and a doublet for the colored markers. The blots were activated with methanol for 5 seconds, washed with water for 5 minutes, and TBST for 15 minutes. The blots were blocked for 1 hour with 5% blocking reagent in TBS-T at room temperature and then washed 3 times with TBS-T (1×-15′; 2×5′ each). Blot 1 was probed with the primary antibody for IDH1 (Cell Signaling #3997) in TBST with 5% BSA (at 1:1000 dilutions) and blot 2 with the rabbit polyclonal antibody for ATP Citrate Lyase in 5% BSA (Cell Signaling #4332) at 1:1000 dilution by incubation overnight at 4 deg C. with shaking. After the overnight incubation with primary antibodies, the blots were washed 3 times with TBS-T (1×-15′; 2×5′ each) and probed with the secondary antibody (antirabbit; 1:10,000 dilution) for 1 h on the orbital tilting shaker at room temperature. After 1 h of incubation with secondary antibodies, the blots were washed 3 times with TBS-T (1×-15′; 2×5′ each) and then incubated with ECF reagent for 5 mins and then each blot scanned with 5100 Fuji Laser scanner at 25 uM resolution, 16 bit, green laser, at 400V and at 500 V.
The samples were processed and run on a 4-12% Bis-Tris Novex NuPAGE gel as described above. The gels were run, transferred and stained essentially as described above.
The Isocitrate dehydrogenase blot was stripped by incubating for 30 minutes with methanol, followed by two 10 minute washes with TBS-T, then 30 minutes of incubation with stripping buffer at 50 deg C., and followed by two washes with 100 ml or more of TBS-T for 30′ each. The blot was scanned in laser scanner to check for complete stripping. The blot was activated with methanol for 5 seconds, washed with water for 5 minutes, and TBST for 15 minutes. The blot was blocked for 1 hour with 5% blocking reagent in TBS-T at room temperature and then washed 3 times with TBS-T (1×-15′; 2×5′ each). This was then probed with the rabbit polyclonal antibody for ATP Citrate Lyase in 5% BSA (Cell Signaling #4332) at 1:1000 dilution overnight at 4 deg C. with shaking. After the overnight incubation with primary antibody for ATP Citrate Lyase, the membrane was washed 3 times with TBS-T (1×-15′; 2×5′ each) and probed with the secondary antibody (antirabbit; 1:10,000 dilution) for 1 h on the orbital tilting shaker at room temperature. After 1 h of incubation with secondary antibodies, the blot was washed 3 times with TBS-T (1×-15′; 2×5′ each) and then incubated with ECF reagent for 5 minutes and then each blot scanned with 5100 Fuji Laser scanner at 25 uM resolution, 16 bit, green laser, at 400V and at 500 V.
In this experiment (western blot experiment 3), and in all of the experiments described below in this Example (i.e., western blot experiments 4 through 9), the cells were additionally treated with either 5 mM glucose (“5G”) or 22 mM glucose (“22G”). The samples derived from the cells were processed and run on a 4-12% Bis-Tris Novex NuPAGE gel as described above. The gels were run, transferred and stained essentially as described above.
The levels of IDH1, ATP citrate lyase and actin levels were determined by probing the blots with primary antibodies for IDH1, ATP citrate lyase and actin, essentially as described above.

SMILES: COC1=C(OC)C(=O)C(C/C=C(\C)CC/C=C(\C)CC/C=C(\C)CC/C=C(\C)CC/C=C(\C)CC/C=C(\C)CC/C=C(\C)CC/C=C(\C)CC/C=C(\C)CCC=C(C)C)=C(C)C1=O [Q10, Coenzyme Q10]
- OCR and ECAR values [1]: shift in OCR and ECAR values representative of values observed in a normal cells
- early and late apoptosis (SKBr3 cells): did not show any significant increases
- ATPCL Average Normalized Intensity (ATP Citrate Lyase (ACL); HDFa, HDF-50): ~17500
- ATPCL Average Normalized Intensity (ATP Citrate Lyase (ACL); HDFa, HDF-100): ~25000
- ATP Citrate Lysase Normalized Intensity as % (ATP Citrate Lyase (ACL); HepG2, Hep5g48-50): 85%
- ATP Citrate Lysase Normalized Intensity as % (ATP Citrate Lyase (ACL); HepG2, Hep5g48-100): 79%
- ATP Citrate Lysase Normalized Intensity as % (ATP Citrate Lyase (ACL); HepG2, Hep22G48-50): 129%
- ATP Citrate Lysase Normalized Intensity as % (ATP Citrate Lyase (ACL); HepG2, Hep22G48-100): 209%
- ATPCL Average Normalized Intensity (ATP Citrate Lyase (ACL); MCF-7, MCF-50): ~7500
- ATPCL Average Normalized Intensity (ATP Citrate Lyase (ACL); MCF-7, MCF-100): ~12500
- ATP Citrate Lysase Normalized Intensity as % (ATP Citrate Lyase (ACL); PACA2, PACA5g48-50): 68%
- ATP Citrate Lysase Normalized Intensity as % (ATP Citrate Lyase (ACL); PACA2, PACA5g48-100): 42%
- ATP Citrate Lysase Normalized Intensity as % (ATP Citrate Lyase (ACL); PACA2, PACA22G48-50): 112%
- ATP Citrate Lysase Normalized Intensity as % (ATP Citrate Lyase (ACL); PACA2, PACA22G48-100): 174%
- expression of ACL enzymes (ATP Citrate Lyase (ACL); cancer cells): dose-dependent decrease
- expression of ACL (ATP Citrate Lyase (ACL); normal cells): trend towards increased expression
